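GI50: concentration for 50% inhibition of growth. TGI is the concentration that stops growth completely.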
Key:
Assay in all cases: DTP human tumour cell line panel, 384-well format
MALME-3M melanoma = tested on: MALME-3M melanoma
A549 NSCLC = tested on: A549 NSCLC
NCI/ADR-RES ovarian = tested on: NCI/ADR-RES ovarian
CCRF-CEM leukemia = tested on: CCRF-CEM leukemia
NCI-H460 NSCLC = tested on: NCI-H460 NSCLC
IGROV1 ovarian = tested on: IGROV1 ovarian
SK-MEL-28 melanoma = tested on: SK-MEL-28 melanoma
ACHN renal = tested on: ACHN renal
MDA-MB-231 breast = tested on: MDA-MB-231 breast
HCT-116 colon = tested on: HCT-116 colon
KM12 colon = tested on: KM12 colon
SF-539 CNS = tested on: SF-539 CNS
SF-268 CNS = tested on: SF-268 CNS
NCI-H322M lung = tested on: NCI-H322M lung
MDA-MB-468 breast = tested on: MDA-MB-468 breast
SW-620 colon = tested on: SW-620 colon
TK-10 renal = tested on: TK-10 renal
SF-295 CNS = tested on: SF-295 CNS
NCI-H226 lung = tested on: NCI-H226 lung
SK-OV-3 ovarian = tested on: SK-OV-3 ovarian
U251 glioblastoma = tested on: U251 glioblastoma
SK-MEL-2 melanoma = tested on: SK-MEL-2 melanoma
T-47D breast = tested on: T-47D breast
HOP-62 NSCLC = tested on: HOP-62 NSCLC
UACC-62 melanoma = tested on: UACC-62 melanoma
HCT-15 colon = tested on: HCT-15 colon
K-562 leukemia = tested on: K-562 leukemia
HOP-92 NSCLC = tested on: HOP-92 NSCLC
LOX IMVI melanoma = tested on: LOX IMVI melanoma
MCF7 breast = tested on: MCF7 breast
SN12C renal = tested on: SN12C renal
COLO 205 colon = tested on: COLO 205 colon
HT29 colon = tested on: HT29 colon
UO-31 renal = tested on: UO-31 renal
786-0 renal = tested on: 786-0 renal
HL-60(TB) leukemia = tested on: HL-60(TB) leukemia
M14 melanoma = tested on: M14 melanoma
EKVX NSCLC = tested on: EKVX NSCLC
SK-MEL-5 melanoma = tested on: SK-MEL-5 melanoma
A498 renal = tested on: A498 renal
NCI-H522 lung = tested on: NCI-H522 lung
DU-145 prostate = tested on: DU-145 prostate
SR leukemia = tested on: SR leukemia
MOLT-4 leukemia = tested on: MOLT-4 leukemia
UACC-257 melanoma = tested on: UACC-257 melanoma
PC-3 prostate = tested on: PC-3 prostate
NCI-H23 lung = tested on: NCI-H23 lung
SNB-19 CNS = tested on: SNB-19 CNS
OVCAR-3 ovarian = tested on: OVCAR-3 ovarian
BT-549 breast = tested on: BT-549 breast
SNB-75 CNS = tested on: SNB-75 CNS
CAKI-1 renal = tested on: CAKI-1 renal
RXF 393 renal = tested on: RXF 393 renal
RPMI-8226 leukemia = tested on: RPMI-8226 leukemia
MDA-MB-435 melanoma = tested on: MDA-MB-435 melanoma
OVCAR-5 ovarian = tested on: OVCAR-5 ovarian
OVCAR-4 ovarian = tested on: OVCAR-4 ovarian
HS 578T breast = tested on: HS 578T breast

With `C[C@@H](Oc1ccc(Oc2cnc3ccc(Cl)cc3n2)cc1)C(=O)O` as the molecule, how does the GI50 (MALME-3M melanoma) read?
Its GI50 is > 100 µM.

What about the TGI (MALME-3M melanoma) of the same molecule?
Its TGI is > 100 µM.

And the GI50 (A549 NSCLC)?
The GI50 was 42.6 µM.

What about the TGI (A549 NSCLC) of the same molecule?
The TGI was > 100 µM.

What about the GI50 (NCI/ADR-RES ovarian) of the same molecule?
Its GI50 is 78.3 µM.

And the TGI (NCI/ADR-RES ovarian)?
Its TGI is > 100 µM.

What about the GI50 (CCRF-CEM leukemia) of the same molecule?
Its GI50 is 3.68 µM.

And the TGI (CCRF-CEM leukemia)?
The TGI was > 100 µM.

What about the GI50 (NCI-H460 NSCLC) of the same molecule?
Its GI50 is 6.16 µM.

What about the TGI (NCI-H460 NSCLC) of the same molecule?
The TGI was > 100 µM.

And the GI50 (IGROV1 ovarian)?
The GI50 was 73.1 µM.

What about the TGI (IGROV1 ovarian) of the same molecule?
The TGI was > 100 µM.

What about the GI50 (SK-MEL-28 melanoma) of the same molecule?
Its GI50 is > 100 µM.

What about the TGI (SK-MEL-28 melanoma) of the same molecule?
The TGI was > 100 µM.

What about the GI50 (ACHN renal) of the same molecule?
The GI50 was 32.1 µM.

And the TGI (ACHN renal)?
Its TGI is > 100 µM.

What about the GI50 (MDA-MB-231 breast) of the same molecule?
The GI50 was > 100 µM.

What about the TGI (MDA-MB-231 breast) of the same molecule?
The TGI was > 100 µM.

What about the GI50 (HCT-116 colon) of the same molecule?
The GI50 was 77.4 µM.

What about the TGI (HCT-116 colon) of the same molecule?
Its TGI is > 100 µM.

And the GI50 (KM12 colon)?
Its GI50 is > 100 µM.

And the TGI (KM12 colon)?
Its TGI is > 100 µM.

What about the GI50 (SF-539 CNS) of the same molecule?
Its GI50 is 97.1 µM.

And the TGI (SF-539 CNS)?
Its TGI is > 100 µM.

And the GI50 (SF-268 CNS)?
Its GI50 is > 100 µM.

What about the TGI (SF-268 CNS) of the same molecule?
Its TGI is > 100 µM.

And the GI50 (NCI-H322M lung)?
The GI50 was > 100 µM.

And the TGI (NCI-H322M lung)?
The TGI was > 100 µM.

And the GI50 (MDA-MB-468 breast)?
Its GI50 is 24.8 µM.

And the TGI (MDA-MB-468 breast)?
The TGI was > 100 µM.

What about the GI50 (SW-620 colon) of the same molecule?
Its GI50 is 43.4 µM.

And the TGI (SW-620 colon)?
The TGI was > 100 µM.

What about the GI50 (TK-10 renal) of the same molecule?
The GI50 was 61.4 µM.

And the TGI (TK-10 renal)?
Its TGI is > 100 µM.

And the GI50 (SF-295 CNS)?
The GI50 was 33.2 µM.

And the TGI (SF-295 CNS)?
The TGI was > 100 µM.

What about the GI50 (NCI-H226 lung) of the same molecule?
The GI50 was > 100 µM.

What about the TGI (NCI-H226 lung) of the same molecule?
The TGI was > 100 µM.

And the GI50 (SK-OV-3 ovarian)?
The GI50 was > 100 µM.

And the TGI (SK-OV-3 ovarian)?
Its TGI is > 100 µM.

And the GI50 (U251 glioblastoma)?
Its GI50 is 63.9 µM.

What about the TGI (U251 glioblastoma) of the same molecule?
The TGI was > 100 µM.

What about the GI50 (SK-MEL-2 melanoma) of the same molecule?
Its GI50 is > 100 µM.

And the TGI (SK-MEL-2 melanoma)?
The TGI was > 100 µM.

And the GI50 (T-47D breast)?
Its GI50 is > 100 µM.

What about the TGI (T-47D breast) of the same molecule?
The TGI was > 100 µM.

What about the GI50 (HOP-62 NSCLC) of the same molecule?
Its GI50 is 43.3 µM.

And the TGI (HOP-62 NSCLC)?
Its TGI is > 100 µM.

What about the GI50 (UACC-62 melanoma) of the same molecule?
Its GI50 is 36.5 µM.

What about the TGI (UACC-62 melanoma) of the same molecule?
The TGI was > 100 µM.

And the GI50 (HCT-15 colon)?
The GI50 was 73.7 µM.

And the TGI (HCT-15 colon)?
The TGI was > 100 µM.

And the GI50 (K-562 leukemia)?
Its GI50 is 53.3 µM.

And the TGI (K-562 leukemia)?
The TGI was > 100 µM.

What about the GI50 (HOP-92 NSCLC) of the same molecule?
The GI50 was 96.4 µM.

What about the TGI (HOP-92 NSCLC) of the same molecule?
The TGI was > 100 µM.

And the GI50 (LOX IMVI melanoma)?
The GI50 was > 100 µM.

What about the TGI (LOX IMVI melanoma) of the same molecule?
The TGI was > 100 µM.

And the GI50 (MCF7 breast)?
Its GI50 is 22.5 µM.

And the TGI (MCF7 breast)?
Its TGI is > 100 µM.

What about the GI50 (SN12C renal) of the same molecule?
The GI50 was > 100 µM.

And the TGI (SN12C renal)?
Its TGI is > 100 µM.

What about the GI50 (COLO 205 colon) of the same molecule?
The GI50 was 28.6 µM.

What about the TGI (COLO 205 colon) of the same molecule?
The TGI was > 100 µM.

And the GI50 (HT29 colon)?
The GI50 was > 100 µM.

And the TGI (HT29 colon)?
The TGI was > 100 µM.

What about the GI50 (UO-31 renal) of the same molecule?
The GI50 was 87.1 µM.

And the TGI (UO-31 renal)?
The TGI was > 100 µM.

What about the GI50 ([…]-0 renal) of the same molecule?
Its GI50 is > 100 µM.

What about the TGI (786-0 renal) of the same molecule?
Its TGI is > 100 µM.

What about the GI50 (HL-60(TB) leukemia) of the same molecule?
Its GI50 is 4.5 µM.

What about the TGI (HL-60(TB) leukemia) of the same molecule?
The TGI was 26.1 µM.

And the GI50 (M14 melanoma)?
The GI50 was > 100 µM.

What about the TGI (M14 melanoma) of the same molecule?
Its TGI is > 100 µM.

And the GI50 (EKVX NSCLC)?
Its GI50 is > 100 µM.

And the TGI (EKVX NSCLC)?
Its TGI is > 100 µM.

And the GI50 (SK-MEL-5 melanoma)?
The GI50 was 62.5 µM.

And the TGI (SK-MEL-5 melanoma)?
Its TGI is > 100 µM.

What about the GI50 (A498 renal) of the same molecule?
Its GI50 is 86.9 µM.

And the TGI (A498 renal)?
Its TGI is > 100 µM.

What about the GI50 (NCI-H522 lung) of the same molecule?
Its GI50 is 25.9 µM.

And the TGI (NCI-H522 lung)?
The TGI was > 100 µM.

What about the GI50 (DU-145 prostate) of the same molecule?
Its GI50 is 45.4 µM.

What about the TGI (DU-145 prostate) of the same molecule?
The TGI was > 100 µM.

And the GI50 (SR leukemia)?
The GI50 was 1.71 µM.

And the TGI (SR leukemia)?
Its TGI is 4.65 µM.

And the GI50 (MOLT-4 leukemia)?
The GI50 was 1.46 µM.

And the TGI (MOLT-4 leukemia)?
The TGI was 2.82 µM.

What about the GI50 (UACC-257 melanoma) of the same molecule?
Its GI50 is > 100 µM.

And the TGI (UACC-257 melanoma)?
The TGI was > 100 µM.

And the GI50 (PC-3 prostate)?
The GI50 was > 100 µM.

What about the TGI (PC-3 prostate) of the same molecule?
Its TGI is > 100 µM.

And the GI50 (NCI-H23 lung)?
The GI50 was > 100 µM.

What about the TGI (NCI-H23 lung) of the same molecule?
Its TGI is > 100 µM.

And the GI50 (SNB-19 CNS)?
Its GI50 is > 100 µM.

And the TGI (SNB-19 CNS)?
The TGI was > 100 µM.

And the GI50 (OVCAR-3 ovarian)?
The GI50 was > 100 µM.

And the TGI (OVCAR-3 ovarian)?
The TGI was > 100 µM.

And the GI50 (BT-549 breast)?
The GI50 was 58.3 µM.

And the TGI (BT-549 breast)?
Its TGI is > 100 µM.

What about the GI50 (SNB-75 CNS) of the same molecule?
The GI50 was > 100 µM.

What about the TGI (SNB-75 CNS) of the same molecule?
The TGI was > 100 µM.

And the GI50 (CAKI-1 renal)?
The GI50 was 85.3 µM.

And the TGI (CAKI-1 renal)?
The TGI was > 100 µM.

What about the GI50 (RXF 393 renal) of the same molecule?
The GI50 was 97.5 µM.

What about the TGI (RXF 393 renal) of the same molecule?
The TGI was > 100 µM.

What about the GI50 (RPMI-8226 leukemia) of the same molecule?
Its GI50 is > 100 µM.

And the TGI (RPMI-8226 leukemia)?
Its TGI is > 100 µM.

And the GI50 (MDA-MB-435 melanoma)?
The GI50 was > 100 µM.

And the TGI (MDA-MB-435 melanoma)?
Its TGI is > 100 µM.

What about the GI50 (OVCAR-5 ovarian) of the same molecule?
The GI50 was > 100 µM.

And the TGI (OVCAR-5 ovarian)?
The TGI was > 100 µM.

And the GI50 (OVCAR-4 ovarian)?
Its GI50 is > 100 µM.

And the TGI (OVCAR-4 ovarian)?
Its TGI is > 100 µM.

What about the GI50 (HS 578T breast) of the same molecule?
The GI50 was > 100 µM.

And the TGI (HS 578T breast)?
The TGI was > 100 µM.

Reference: PubChem BioAssay (NCI)
